The test has as its target T1, AMPK (A1/B1/G3) (Homo sapiens, UniProt Q13131).
T1 construct: purchased Thermo Fisher Scientific (Life Technologies) SelectScreen
Briefly: SelectScreen LanthaScreen. It is filed as binding. Conditions: read-out: % displacement. The procedure, abridged:
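NU5455 was profiled across the SelectScreen Broad panel of kinase activity and binding assays. Z'LYTE reactions such as CSF1R ran at apparent Km ATP, while the Adapta CAMK1 assay used ATP listed as 10. Values are given as percent.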
In general terms: In TR-FRET formats the signal depends on donor and acceptor labels being close together.

Molecules are shown by their SMILES.

T1 sequence (Q13131 whole entry): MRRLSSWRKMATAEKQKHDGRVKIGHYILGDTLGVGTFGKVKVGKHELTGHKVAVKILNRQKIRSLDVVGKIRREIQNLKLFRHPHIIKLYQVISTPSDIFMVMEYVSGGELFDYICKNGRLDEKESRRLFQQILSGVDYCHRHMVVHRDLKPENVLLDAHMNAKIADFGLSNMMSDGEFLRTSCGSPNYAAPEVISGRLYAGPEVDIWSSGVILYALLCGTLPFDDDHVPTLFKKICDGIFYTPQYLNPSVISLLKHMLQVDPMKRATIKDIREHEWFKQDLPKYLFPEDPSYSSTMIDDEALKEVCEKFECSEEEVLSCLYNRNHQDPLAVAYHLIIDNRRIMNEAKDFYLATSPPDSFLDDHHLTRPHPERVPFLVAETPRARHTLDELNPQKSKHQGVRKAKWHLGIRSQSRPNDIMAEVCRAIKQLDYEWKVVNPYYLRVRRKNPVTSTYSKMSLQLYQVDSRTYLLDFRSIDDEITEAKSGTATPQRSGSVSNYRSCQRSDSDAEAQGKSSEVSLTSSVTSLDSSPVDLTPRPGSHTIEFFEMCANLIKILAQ
T1 sequence (Q9Y478 whole entry partner): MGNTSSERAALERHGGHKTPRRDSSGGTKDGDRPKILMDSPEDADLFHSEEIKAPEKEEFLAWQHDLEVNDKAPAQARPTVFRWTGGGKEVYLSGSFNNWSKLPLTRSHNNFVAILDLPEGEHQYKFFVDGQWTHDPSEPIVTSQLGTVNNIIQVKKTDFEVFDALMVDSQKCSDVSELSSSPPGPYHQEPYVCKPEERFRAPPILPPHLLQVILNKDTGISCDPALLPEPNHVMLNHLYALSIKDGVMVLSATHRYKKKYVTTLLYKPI
T1 sequence (Q9UGI9 whole entry partner): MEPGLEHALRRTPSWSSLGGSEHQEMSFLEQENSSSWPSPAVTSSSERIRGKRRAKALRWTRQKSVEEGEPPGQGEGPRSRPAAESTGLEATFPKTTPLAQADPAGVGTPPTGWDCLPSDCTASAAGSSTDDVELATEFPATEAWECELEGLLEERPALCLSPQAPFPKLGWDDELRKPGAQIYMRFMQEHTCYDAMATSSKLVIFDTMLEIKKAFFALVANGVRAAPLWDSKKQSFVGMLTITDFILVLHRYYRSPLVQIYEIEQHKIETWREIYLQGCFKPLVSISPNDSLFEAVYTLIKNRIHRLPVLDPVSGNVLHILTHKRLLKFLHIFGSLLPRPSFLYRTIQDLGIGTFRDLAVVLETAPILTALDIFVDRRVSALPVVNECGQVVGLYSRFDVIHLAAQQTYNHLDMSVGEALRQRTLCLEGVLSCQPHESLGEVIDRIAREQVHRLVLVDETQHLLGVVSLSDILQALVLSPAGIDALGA

As for `CN(C(=O)CN1CCOCC1)c1ccc2sc3c(-c4cccc5c(=O)cc(N6CC7CCC(C6)O7)oc45)cccc3c2c1` [NU5455], the inhibition at 1 µM was determined as 0.2%.

These data come from PMC6934184, “Selective DNA-PKcs inhibition extends the therapeutic index of localized radiotherapy and chemotherapy” (The Journal of Clinical Investigation, 2019).
